Values quoted from earlier work, collected in US12194073B1, “Method of arthropod egress” (priority 2023, dated 2025).
Like-named read-outs stand apart in the source and are kept apart here.

Columns and labels:
[1] = for shelf stability at ambient temperature: suspension in vegetable oils, glycerol, mineral oil and white petrolatum
[2] = for ocular adverse effects: suspension in vegetable oils, glycerol, mineral oil and white petrolatum
[3] = for drug payload: solution in squalane, with/without mineral oil
[4] = for therapeutic effect: suspension in vegetable oils, glycerol, mineral oil and white petrolatum
[5] = not given; remark: listed apart in the source
[6] = squalane, with/without mineral oil, as vehicle
[7] = solution in SFA (F4H5)
[8] = self-emulsifying system; corn oil, PEG-6 esters, Tween 80 and Transcutol
[9] = system: Demodex folliculorum; conditions: all three concentrations; in vitro; vs 5% permethrin
[10] = not given; remark: listed apart in the source
[11] = solution in DMSO and castor oil
[12] = self-emulsifying system, Capmul MCM, Cremophor RH 40, Transcutol and hydroxypropylmethyl cellulose
[13] = self-emulsifying system, S-protected thiolated Eudragit L100-55-BAK ion pair, Labrafil M 1944CS
[14] = suspension in sesame seed oil vs high-dose viscous aqueous formulation
[15] = self-emulsifying system, corn oil, PEG-6 esters, Tween 80 and Transcutol
[16] = oleogel, soyabean oil, beeswax and gelator

Compound: O=C(O)c1cccc(-c2noc(-c3ccccc3F)n2)c1 [Ataluren]
- Sterility [1, 11]: Sterility maintained and drug degradation
- drug degradation [1, 11]: inhibited; no penetration studies performed

Compound: CC[C@H]1OC(=O)[C@H](C)[C@@H](O[C@H]2C[C@@](C)(OC)[C@@H](O)[C@H](C)O2)[C@H](C)[C@@H](O[C@@H]2O[C@H](C)C[C@H](N(C)C)[C@H]2O)[C@](C)(O)C[C@@H](C)CN(C)[C@H](C)[C@@H](O)[C@]1(C)O [Azithromycin]
- adverse events (if any) in clinical trials ([2]; Azyter, solution in MCT): mild to moderate
- tolerability ([2]; Azyter, solution in MCT): well tolerated

Compound: Clc1ccc(COC(Cn2ccnc2)c2ccc(Cl)cc2Cl)cc1 (stereo not drawn) [Econazole nitrate]
- penetration [12]: Enhanced
- in vitro and in vivo safety [2, 12]: acceptable in vitro and in vivo safety
- in vitro release profile [3, 13]: good in vitro release profile; no in vivo studies
- mucoadhesion [3, 13]: Mucoadhesive
- sustained drug release over [3, 13]: 8 h
- onset of action [4, 12]: faster

Compound: C[C@]12CCC(=O)C=C1CC[C@@H]1[C@@H]2[C@@H](O)C[C@@]2(C)[C@H]1CC[C@]2(O)C(=O)CO [Hydrocortisone]
- drug payload [3]: high drug payload; potential to reduce dosing

Compound: CC(C)OC(=O)CCC/C=C\C[C@@H]1[C@@H](CC[C@@H](O)CCc2ccccc2)[C@H](O)C[C@@H]1O [Latanoprost]
- bioavailability (solution in SFA (F4H5, F6H8)): eyedrops at relatively lower dose; improved
- Clinical efficacy ([4]; solution in SFA (F4H5, F6H8) at relatively lower dose vs marketed aqueous eyedrops): Clinical efficacy comparable to marketed aqueous

Compound: CNC[C@H](O)c1cccc(O)c1 [Phenylephrine]
- onset of action [4, 14]: Faster
- therapeutic response [4, 14]: higher

Compound: CC[C@@H]1C(=O)OC[C@@H]1Cc1cncn1C [Pilocarpine]
- shelf stability at ambient temperature [1]: adverse effects; improved shelf stability at ambient
- ocular adverse effects [2]: reduced
- therapeutic effect [4]: Improved

Compound: CC[C@@H]1/C=C(\C)C[C@H](C)C[C@H](OC)[C@H]2O[C@@](O)(C(=O)C(=O)N3CCCC[C@H]3C(=O)O[C@H](/C(C)=C/[C@@H]3CC[C@H](Cl)[C@H](OC)C3)[C@H](C)[C@@H](O)CC1=O)[C@H](C)C[C@@H]2OC [Pimecrolimus]
- safety ([5]; dog, in vivo): Better
- clinical outcomes ([5]; solution in corn oil vs ointments, dogs with DED): Better clinical outcomes
- drug payload [3]: high drug payload; potential to reduce dosing

Compound: C[C@]12C=CC(=O)C=C1CC[C@@H]1[C@@H]2[C@@H](O)C[C@@]2(C)[C@H]1CC[C@]2(O)C(=O)CO [Prednisolone]
- precorneal drainage (self-emulsifying system, linoleic acid, Cremophor RH 40 and propylene glycol): reduced
- drug payload [3]: high drug payload; potential to reduce dosing

Compound: CC(C)CCCC(C)CCCC(C)CCCCC(C)CCCC(C)CCCC(C)C (stereo not drawn) [Squalane]
- symptomatic relief in DED (vehicle) [6]: Vehicle beneficial for symptomatic relief in DED;

Compound: C=CC[C@@H]1/C=C(\C)C[C@H](C)C[C@H](OC)[C@H]2O[C@@](O)(C(=O)C(=O)N3CCCC[C@H]3C(=O)O[C@H](/C(C)=C/[C@@H]3CC[C@@H](O)[C@H](OC)C3)[C@H](C)[C@@H](O)CC1=O)[C@H](C)C[C@@H]2OC [Tacrolimus]
- intraocular penetration (solution in SFA (F4H5) vs aqueous suspension): greater intraocular penetration than aqueous
- clinical signs of uveitis [7]: Significant improvement in clinical signs of uveitis;

Compound: CC(C)N1CCN(c2ccc(OCC3COC(Cn4cncn4)(c4ccc(Cl)cc4Cl)O3)cc2)CC1 (stereo not drawn) [Terconazole]
- drug stability [1, 15]: Improved
- conjunctival irritation in vitro [8]: no
- drug release [3, 15]: rapid

Compound: CN[C@H](CC(C)C)C(=O)N[C@H]1C(=O)N[C@@H](CC(N)=O)C(=O)N[C@H]2C(=O)N[C@H]3C(=O)N[C@H](C(=O)N[C@H](C(=O)O)c4cc(O)cc(O)c4-c4cc3ccc4O)[C@H](O)c3ccc(c(Cl)c3)Oc3cc2cc(c3O[C@@H]2O[C@H](CO)[C@@H](O)[C@H](O)[C@H]2O[C@H]2C[C@](C)(N)[C@H](O)[C@H](C)O2)Oc2ccc(cc2Cl)[C@H]1O [Vancomycin]
- drug release [3, 16]: Extended
- release profile and oleogel texture [3, 16]: customisable

Compound: O=C(O)CCCCCCCC(=O)O [azelaic acid]
- anti-Demodex efficacy [9]: comparable to that of 5% permethrin

Compound: O=C(O)c1cn(C2CC2)c2cc(N3CCNCC3)c(F)cc2c1=O [ciprofloxacin]
- drug payload [3]: high drug payload; potential to reduce dosing

Compound: Cc1ccccc1N1CCN(CCc2nnc3n2CCCC3)CC1 [dapiprazole]
- shelf stability at ambient temperature [1]: adverse effects; improved shelf stability at ambient
- ocular adverse effects [2]: reduced
- therapeutic effect [4]: Improved

Compound: C[C@]12C=CC(=O)C=C1CC[C@H]1[C@@H]3C[C@@H](O)[C@](O)(C(=O)CO)[C@@]3(C)C[C@H](O)[C@@]12F [triamcinolone]
- drug release [3, 16]: Extended
- release profile and oleogel texture [3, 16]: customisable

Compound: ivermectin
- solubility among the oils tested [10]: highest solubility in tea tree oil followed by ethylbutanoate
